Results as given in patent US20170157212A1, “CDK MODULATORS AND METHODS FOR THE TREATMENT OF CANCER” (Salk Institute for Biological Studies, priority 2015, published 2017).

Assays:
[1] = target: T1, affinity-purified CDK12 kinase complex (Homo sapiens, UniProt Q9NYV4); test: In vitro kinase assay: CDK12 phosphorylation of RNAPII GST-CTD; assay type: biochemical; conditions: human GST-CTD (52 repeat), increasing levels of recombinant CRIF1, immunoblot, dose-dependent
T1 construct: made in house
Text: (A) CRIF1 and CDK12 have opposite effects on global RNAPII CTD-Ser2P levels in vivo. U2OS cells were transfected with indicated siRNAs for 48 hr, and RNAPII phosphorylation was monitored by immunoblot using phospho-specific CTD (Ser2P and Ser5P) antibodies. (B) Knockdown of CRIF1 up-regulates CHK1 expression and induction of p53. […] (C) Analysis of steady-state mRNA levels by qRT-PCR in extracts from U2OS cells exposed to control (CTL) or CRIF1-specific siRNAs, as indicated. (D) Depletion of CRIF1 enhances 4E-BP1 phosphorylation at S65 and T70 in vivo, as assessed by immunoblot using phospho-specific antibodies. (E) CRIF1 inhibits RNAPII CTD-Ser2 phosphorylation by CDK12 complexes in vitro. The human GST-CTD (52 repeat) protein was incubated in vitro with the affinity-purified HA-CDK12 kinase complex in the absence or presence of increasing levels of purified recombinant CRIF1, and analyzed by immunoblot with the indicated antisera. […] Analysis of GST-CTD Ser2 phosphorylation was carried out as described in (E), using the affinity-purified FLAG-CDK9 kinase. (G) CRIF1 inhibits 4E-BP1 phosphorylation by CDK12 in vitro. […] was monitored by immunoblot in the absence or in the presence of different levels of affinity-purified recombinant CRIF1. […]

[2] = system: CDK12; test: Co-immunoprecipitation of CRIF1 with CDK12; assay type: binding, human; conditions: native complexes
Text: FIGS. 5A-5I. The Mitochondrial OX-PHOS Regulator, CRIF1, is a Novel Subunit of the Human CDK12 Kinase Complex. (A) Identification of CRIF1 as a near-stoichiometric subunit of the native CDK12 kinase complex. MudPIT analysis of CDK12 complexes from HEK293 cells that stably express HA-tagged full-length human CDK12. The HA-CDK12 complex was affinity-purified using anti-HA antibody and visualized by SDS-PAGE and silver-stain. (B) List of the identified proteins in the HA-CDK12 complex from (A). (C) Endogenous CRIF1 co-immunoprecipitates with native CDK12 in U2OS cell extracts. Shown is an immunoblot analysis of CRIF1, CCNK, and the chaperone proteins CDC37 and HSP90 in an anti-CDK12 immunoprecipitate. […] Native CRIF1 was immunoprecipitated from U2OS cells using an anti-CRIF1 antibody and analyzed by co-immunoprecipitation for association with various CDKs, as indicated. […] FLAG-CRIF1 proteins containing different C-terminal truncations were co-expressed with HA-CDK12 (aa 985-1490) and analyzed for binding by co-immunoprecipitation and immunoblot. […] Cell viability was analyzed after 72 hr. […] Expression of the mitochondrial MTCO-1 (COX1) protein was assessed using two different antisera. […] Each fraction (T; total, C:cytosolic, M:membrane/organelle, and N:nuclear) was analyzed by immunoblot using the indicated antibodies. […]
It was next evaluated how CRIF1 targets CDK12. […]

T1 sequence (Q9NYV4 whole entry): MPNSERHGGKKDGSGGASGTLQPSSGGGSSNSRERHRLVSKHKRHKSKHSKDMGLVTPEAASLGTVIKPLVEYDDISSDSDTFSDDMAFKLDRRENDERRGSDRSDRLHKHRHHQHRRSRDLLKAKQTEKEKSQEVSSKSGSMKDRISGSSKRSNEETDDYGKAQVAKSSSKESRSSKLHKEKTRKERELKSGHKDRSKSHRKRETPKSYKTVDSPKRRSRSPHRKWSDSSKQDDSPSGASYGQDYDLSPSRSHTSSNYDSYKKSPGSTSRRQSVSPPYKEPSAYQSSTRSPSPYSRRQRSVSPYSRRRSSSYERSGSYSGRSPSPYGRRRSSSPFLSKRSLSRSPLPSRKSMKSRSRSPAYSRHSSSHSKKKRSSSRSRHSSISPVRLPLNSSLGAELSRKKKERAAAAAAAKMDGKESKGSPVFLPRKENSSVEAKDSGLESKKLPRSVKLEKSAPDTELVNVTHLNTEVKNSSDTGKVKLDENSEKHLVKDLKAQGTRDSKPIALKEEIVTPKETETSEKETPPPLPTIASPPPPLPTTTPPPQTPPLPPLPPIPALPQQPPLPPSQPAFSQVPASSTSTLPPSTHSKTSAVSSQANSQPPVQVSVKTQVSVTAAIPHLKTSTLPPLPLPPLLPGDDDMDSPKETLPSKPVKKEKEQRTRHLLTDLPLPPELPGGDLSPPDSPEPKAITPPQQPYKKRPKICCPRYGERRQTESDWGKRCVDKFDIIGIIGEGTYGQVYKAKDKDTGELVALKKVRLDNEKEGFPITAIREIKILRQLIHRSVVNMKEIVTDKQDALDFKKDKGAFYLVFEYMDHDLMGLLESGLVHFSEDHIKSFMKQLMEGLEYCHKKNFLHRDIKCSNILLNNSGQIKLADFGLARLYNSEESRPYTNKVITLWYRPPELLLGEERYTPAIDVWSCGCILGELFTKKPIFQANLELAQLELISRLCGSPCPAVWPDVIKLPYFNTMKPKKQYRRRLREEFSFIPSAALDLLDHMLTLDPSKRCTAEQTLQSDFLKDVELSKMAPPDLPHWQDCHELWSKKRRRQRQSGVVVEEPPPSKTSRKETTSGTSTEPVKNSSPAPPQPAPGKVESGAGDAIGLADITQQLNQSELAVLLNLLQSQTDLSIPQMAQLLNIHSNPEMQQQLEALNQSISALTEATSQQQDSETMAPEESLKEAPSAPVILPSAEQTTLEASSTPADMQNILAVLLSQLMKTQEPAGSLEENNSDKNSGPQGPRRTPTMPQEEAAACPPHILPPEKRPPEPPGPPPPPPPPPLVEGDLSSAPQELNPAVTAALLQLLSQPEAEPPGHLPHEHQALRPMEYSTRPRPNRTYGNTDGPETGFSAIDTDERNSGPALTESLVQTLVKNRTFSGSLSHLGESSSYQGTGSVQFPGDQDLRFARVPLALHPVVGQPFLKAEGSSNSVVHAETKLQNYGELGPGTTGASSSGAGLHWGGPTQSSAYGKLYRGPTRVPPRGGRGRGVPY
T1 sequence (O75909 whole entry partner): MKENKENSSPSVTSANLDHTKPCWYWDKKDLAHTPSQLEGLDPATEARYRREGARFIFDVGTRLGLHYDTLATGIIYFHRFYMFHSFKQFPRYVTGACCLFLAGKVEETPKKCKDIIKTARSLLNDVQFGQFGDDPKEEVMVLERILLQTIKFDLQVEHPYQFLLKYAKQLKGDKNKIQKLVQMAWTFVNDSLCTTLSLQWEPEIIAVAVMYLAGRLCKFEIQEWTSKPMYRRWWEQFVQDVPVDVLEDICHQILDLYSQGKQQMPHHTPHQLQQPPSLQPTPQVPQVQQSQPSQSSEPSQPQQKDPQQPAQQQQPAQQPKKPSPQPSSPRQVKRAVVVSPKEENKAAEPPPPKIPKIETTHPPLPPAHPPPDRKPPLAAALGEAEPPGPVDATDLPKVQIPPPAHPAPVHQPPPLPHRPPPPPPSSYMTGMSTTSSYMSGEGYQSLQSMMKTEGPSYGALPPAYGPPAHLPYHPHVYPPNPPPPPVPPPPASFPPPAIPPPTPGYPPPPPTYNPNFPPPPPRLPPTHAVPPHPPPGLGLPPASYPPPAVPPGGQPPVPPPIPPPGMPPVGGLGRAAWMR
Sequence of CDK12 (Q9NYV4 whole entry): as the sequence (Q9NYV4 whole entry) above
Sequence of CDK12 (O75909 whole entry partner): as the sequence (O75909 whole entry partner) above

## Growth Arrest and DNA Damage-Inducible Proteins-Interacting Protein 1 [CRIF1]
[1]
  CDK12-mediated phosphorylation of the human GST-CTD substrate (RNAPII CTD-Ser2): inhibits
[1]; listed as recombinant CRIF1
  CDK12-mediated phosphorylation of the human GST-CTD substrate (RNAPII CTD-Ser2): potently inhibited
[2]
  presence of CRIF1 in CDK12 complexes: present
